The record followed here is ChEMBL document CHEMBL3352596, “Discovery of novel inhibitors of vascular endothelial growth factor-A-Neuropilin-1 interaction by structure-based virtual screening” (Bioorg Med Chem, 2014).

In general, Ki refers to the dissociation constant of the complex between target and ligand, obtained from inhibition or displacement. In general, inhibition refers to the percentage by which the read-out fell short of the control.

The target of the first experiment is Neuropilin-1 (Rattus norvegicus, UniProt Q9QWJ9). As to the kind of experiment: Inhibition of biotinylated VEGF-A165 from rat recombinant NRP-1 Fc domain.
As for `CCOc1cc(CNCCO)cc(Br)c1OCc1ccc(Cl)cc1Cl`, the Ki stood at 10.7 µM.

In the case of `COc1cc(CNC(C)c2ccccc2)cc(Br)c1OCc1ccccc1Cl` (configuration not stated), the Ki worked out at 9.4 µM.

`COc1cc(CNCCO)cc(Cl)c1OCc1ccc(Cl)cc1Cl`: the Ki was determined as 7.3 µM. As to `CCOc1cc(CNCc2ccccc2)cc(Cl)c1OCc1ccccc1Cl`, the inhibition constant Ki was determined as 11.3 µM. On to H-ATWLPPR-OH, for which the Ki was 5.2 µM.

In the next experiment the target is Neuropilin-1 (Rattus norvegicus) (UniProt Q9QWJ9). As to the kind of experiment: Inhibition of biotinylated VEGF-A165 from rat recombinant NRP-1 Fc domain at 100 uM.
`CC(=O)Nc1ccc2nc(-c3ccccc3C)oc2c1`: the inhibition was determined as 53.3%.

For `CCNCc1cc(Cl)c(OCc2ccccc2Cl)c(OC)c1`, the inhibition came to 59.2%.

With `CCCNCc1ccc(OCc2ccc(Cl)cc2Cl)c(OC)c1`, the inhibition was found to be 60.2%.

For `COc1cc(CNCCO)cc(Br)c1OCc1ccccc1Cl`, the inhibition is 60.5%.

With `CC[C@@H](C)NCCCOc1ccc(Cl)c(C)c1C`, the inhibition turned out to be 52.3%. `Cc1cc(O)c(C(=O)COc2ccccc2)c(O)c1`: the inhibition was 55.3%. On the same count and under the same terms, the figure for `CCOc1cc(CNCCO)ccc1OCc1ccc(Cl)cc1Cl` is 71.5%; for `CC(C)NCc1ccccc1OCc1ccc(Cl)cc1` it is 44.8%; for `OCCNCc1ccc(OCc2ccccc2)c(Cl)c1` it is 45.1%. Regarding `CC[C@H](C)c1ccccc1OCCCCN(CC)CC`, the inhibition was found to be 41.6%.

`Clc1ccc(COc2ccc(CNC3CC3)cc2)cc1`: the inhibition came out at 47.3%. In the case of H-ATWLPPR-OH, the inhibition came to 91.5%.
